{
  "source": "patent US10736965B2",
  "about": "“Risperidone biodegradable implant” (The Trustees of the University of Pennsylvania, priority 2004, dated 2020)",
  "key": {"Drug solubility in water": {"assay": "Drug solubility in water", "format": "physicochemical", "conditions": "measured after 14 days, distilled water, 21° C.; for solubility at 14 days: thermodynamic from solid", "from_the_text": "1-mL aliquots were removed at fixed time intervals and analyzed by UV Spectroscopy to determine maximum saturation concentration."}, "[1]": {"assay": "In vitro drug release assay from 50:50 PLGA pellets, fit to equation (4)", "format": "physicochemical", "conditions": "for k, fit parameter: FIG. 11 legend; for k (degradation reaction rate): fit of FIG. 10 data to equation (4), 50:50 PLGA, 20% drug load; for Onset of drug release (induction time): 50:50 PLGA pellets, PBS 37° C.", "protocol": "400 mg of 50:50 PLGA and 100 mg of drug were solvent cast to obtain a 20% by mass drug-load. Polymer and drug were dissolved in 45 milliliters (mL) acetone (Fisher Scientific, Inc.) and vortexed, then poured into an evaporation dish and placed in a vacuum oven at 40° C. under vacuum (3 inches Hg) with trace airflow. After seven days, dishes were removed from the oven. Evaporation residue was a thin film mixture of polymer and drug with homogenous appearance. The film was carefully weighed to confirm complete removal of solvent and pressed into four uniform disk-shaped pellets with 1 mm thickness and […], using a Teflon®-coated pellet press set at 25 (kilo-pounds) klb and 60° C. Pellets were carefully weighed and measured to determine densities. Negative control pellets with a 0% drug load were fabricated in the same manner, using 500 mg polymer and no drug.\nAssays were performed in triplicate using three of each set of four uniform pellets. Each pellet was added to an amber-glass, capped jar (Wheaton, Inc.) containing 500 mL of a PBS solution and subjected to moderate shaking in the dark, at 37° C. 1-mL aliquots of were analyzed by UV Spectroscopy at fixed time intervals and. Positive control jars contained PBS and 10 mg of drug, the expected maximum release for a 20% drug-loaded pellet with a mass of 50 mg, and were also used to determine stability of each drug in saline solution over the course of the experiment.\nThe degradation reaction is likely to be a […] reaction between the polymer and water, and is thus proportional to the local concentration of both species. However, since the polymer comprises the majority of the pellet, its concentration is fixed everywhere. Thus, the degradation reaction is proportional to the local concentration of water (a function of the diffusivity) times a constant. Defining the diffusion coefficient of water into the polymer pellet as D, the diffusion/reaction equation for water is written as (1): […]\nThe model described by Equation (4) fit well the drug release data shown in FIG. 10 for all six drugs tested, with values of D and k as listed in Table 2 (the curves for haloperidol and aspirin are depicted in FIG. 11). This is notable because the drugs tested are diverse; e.g. haloperidol and aspirin are very different. The deviations seen at late time points arose from the finite size of the pellets."}, "in vivo": {"assay": "in vivo", "conditions": "rabbit", "from_the_text": "The concentration of drug as a function of time is a complex function. The error function can be approximated as erf(x)˜1−e^−7x/4, yielding equation 10 for the drug concentration. a1 is a constant equal to the total drug content of the implant, variable a2 is a constant equal to the metabolic rate, variable a3 reflects diffusion of drug from the implant and variable a4 reflects polymer degradation and influences total release interval."}, "[2]": {"format": "physicochemical", "protocol": "To evaluate the long-term stability of risperidone in physiological solution, 10 mg Risperidone was dissolved in 100 μl of acetonitrile for subsequent dissolution in 1,000 ml of PBS (0.9% NaCl, 0.01 M NaOH, 0.01 M NaH2PO4, pH 7.0) to yield a final solution of 10,000 nanograms (ng)/ml. The solution was shaken at 40 revolutions per minute in a light-safe amber bottle at 37° C. Drug concentration of a 1-ml sample was measured three times per week by UV spectroscopy (Amersham Biosciences, Buckinghamshire, UK). […] Studies were replicated using UV spectrophotometry and HPLC (FIG. 5)."}, "[3]": {"conditions": "first 77 days"}},
  "note": "Like-named read-outs stand apart in the source and are kept apart here.",
  "data": [
    {"molecule": "CC(C)Cc1ccc(C(C)C(=O)O)cc1", "note": "(stereo not drawn) [Ibuprofen, 2-[4-(2-methylpropyl)phenyl]propanoic acid]", "values": [
      {"measurement": "solubility at 14 days", "setting": "Drug solubility in water", "value": 470, "unit": "µg/mL"},
      {"measurement": "k, fit parameter", "setting": "[1]", "value": "approximately 0.164 1/days"},
      {"measurement": "k (degradation reaction rate)", "setting": "[1]", "value": 0.16, "unit": "day⁻¹"}
    ]},
    {"molecule": "CC12CCC(=O)C=C1CCC1C2C(O)CC2(C)C(C(=O)CO)CCC12", "note": "(stereo not drawn) [Corticosterone, 11-hydroxy-17-(2-hydroxyacetyl)-10,13-dimethyl-1,2,6,7,8,9,10,11,12,13,14,15,16,17-tetradecahydrocyclopenta[a]phenanthren-3-one]", "values": [
      {"measurement": "solubility at 14 days", "setting": "Drug solubility in water", "value": 500, "unit": "µg/mL"},
      {"measurement": "k (degradation reaction rate)", "setting": "[1]", "value": 0.33, "unit": "day⁻¹"}
    ]},
    {"molecule": "CN1CCN(CCC=C2c3ccccc3Sc3ccc(S(=O)(=O)N(C)C)cc32)CC1", "note": "[Thiothixene, N,N-dimethyl-9-[3-(4-methylpiperazin-1-yl)propylidene]thioxanthene-2-sulfonamid]", "values": [
      {"measurement": "solubility at 14 days", "setting": "Drug solubility in water", "value": 140, "unit": "µg/mL"},
      {"measurement": "Onset of drug release (induction time)", "setting": "[1]", "value": "released as soon as the experiment begins"},
      {"measurement": "k (degradation reaction rate)", "setting": "[1]", "value": 0.06, "unit": "day⁻¹"}
    ]},
    {"molecule": "O=C(CCCN1CCC(O)(c2ccc(Cl)cc2)CC1)c1ccc(F)cc1", "note": "[Haloperidol, 4-[4-(4-chlorophenyl)-4-hydroxy-1-piperidyl]-1-(4-fluorophenyl)-butan-1-one]", "values": [
      {"measurement": "solubility at 14 days", "setting": "Drug solubility in water", "value": 130, "unit": "µg/mL"},
      {"measurement": "Onset of drug release (induction time)", "setting": "[1]", "value": "exhibited an induction time"},
      {"measurement": "k, fit parameter", "setting": "[1]", "value": "approximately 0.1 1/days"},
      {"measurement": "k (degradation reaction rate)", "setting": "[1]", "value": 0.07, "unit": "day⁻¹"},
      {"measurement": "Coefficient τ", "setting": "in vivo", "value": "≈ 0.027"},
      {"measurement": "half-life", "setting": "in vivo", "value": "~2.17", "unit": "h"}
    ]},
    {"molecule": "CC(=O)Oc1ccccc1C(=O)O", "note": "[Aspirin, 2-acetyloxybenzoic acid]", "values": [
      {"measurement": "Water solubility", "setting": "Drug solubility in water", "value": 4990, "unit": "µg/mL"},
      {"measurement": "k (degradation reaction rate)", "setting": "[1]", "value": 0.06, "unit": "day⁻¹"}
    ]},
    {"molecule": "Cc1nc2n(c(=O)c1CCN1CCC(c3noc4cc(F)ccc34)CC1)CCCC2", "note": "[Risperidone]", "values": [
      {"measurement": "Stability in physiological solution", "setting": "[2]", "value": "stable"},
      {"measurement": "Change in concentration of drug per day", "setting": "[2]; PBS pH 7.0, 37° C.", "value": 0.004, "unit": "% per day"},
      {"measurement": "Change in concentration of drug", "setting": "[2]; over 343 days, PBS pH 7.0, 37° C., UV spectroscopy", "value": 1.4, "unit": "%"},
      {"measurement": "Daily change in drug mass", "setting": "[3]; pH 4.4", "value": 0.00, "unit": "%"},
      {"measurement": "Daily change in drug mass", "setting": "[3]; pH 5.4", "value": 0.10, "unit": "%"},
      {"measurement": "Daily change in drug mass", "setting": "[3]; pH 6.4", "value": 0.04, "unit": "%"},
      {"measurement": "Daily change in drug mass", "setting": "[3]; pH 7.4", "value": 0.06, "unit": "%"}
    ]},
    {"molecule": "NS(=O)(=O)c1cc2c(cc1Cl)NCNS2(=O)=O", "note": "[HCTZ, 9-chloro-5,5-dioxo-5λ6-thia-2,4-diazabicyclo[4.4.0]deca-6,8,10-triene-8-sulfonamide]", "values": [
      {"measurement": "k (degradation reaction rate)", "setting": "[1]", "value": 0.26, "unit": "day⁻¹"}
    ]}
  ]
}
